Measurements reported in article PMC6979384, “Characterization of the plant homeodomain (PHD) reader family for their histone tail interactions” (Epigenetics & Chromatin, 2020).

Experiments:
Assay in all cases: Histone peptide microarray
Format in all cases: binding, human
Details in all cases: histone peptide array, arrays performed twice, n of 4
ING4 = test system: ING4
Procedure, shortened: (§1)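 Histone peptide library (293 synthetic peptides, single/combinatorial PTMs) arrayed and probed with 0.5 μM purified GST-PHD domain; optimized protocol; quadruplicate mean and SD reported.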

ING2 = test system: ING2
Procedure, shortened: as §1

DPF2 (PPC2W2) = test system: DPF2 (PPC2W2)
Procedure, shortened: as §1

BPTF (PB) = test system: BPTF (PB)
Procedure, shortened: as §1

PHF23 = test system: PHF23
Procedure, shortened: as §1

KDM7A = test system: KDM7A
Procedure, shortened: as §1

ING1 = test system: ING1
Procedure, shortened: as §1

CHD5 (PPCC) = test system: CHD5 (PPCC)
Procedure, shortened: as §1

PHF8 = test system: PHF8
Procedure, shortened: as §1

PHF2 = test system: PHF2
Procedure, shortened: as §1

CHD5 (PCC) = test system: CHD5 (PCC)
Procedure, shortened: as §1

PHRF1 (RP) = test system: PHRF1 (RP)
Procedure, shortened: as §1

PHF13 = test system: PHF13
Procedure, shortened: as §1

KDM5A (3) = test system: KDM5A (3)
Procedure, shortened: as §1

MLL5 = test system: MLL5
Procedure, shortened: as §1

TAF3 = test system: TAF3
Procedure, shortened: as §1

BAZ2B = test system: BAZ2B
Procedure, shortened: as §1

SP140L = test system: SP140L
Procedure, shortened: as §1

TRIM66 (PB) = test system: TRIM66 (PB)
Procedure, shortened: as §1

RAG2 = test system: RAG2
Procedure, shortened: as §1

KDM5B (1) = test system: KDM5B (1)
Procedure, shortened: as §1

MORC3 (CW) = test system: MORC3 (CW)
Procedure, shortened: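 GST-tagged PHD readers, 0.5 μM, probed on a microarray of 293 synthetic histone peptides carrying single or combinatorial PTMs (optimized Petell protocol). Signals are averaged over 4 replicates and expressed as relative binding.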

KDM5B (3) = test system: KDM5B (3)
Procedure, shortened: as §1

DIDO1 = test system: DIDO1
Procedure, shortened: as §1

ING3 = test system: ING3
Procedure, shortened: as §1

ING5 = test system: ING5
Procedure, shortened: as §1

AIRE (PP) = test system: AIRE (PP)
Procedure, shortened: as §1

KDM4C (TTP) = test system: KDM4C (TTP)
Procedure, shortened: as §1

KDM5A (1) = test system: KDM5A (1)
Procedure, shortened: as §1

PHF21A = test system: PHF21A
Procedure, shortened: as §1

CHD4 (PPCC) = test system: CHD4 (PPCC)
Procedure, shortened: as §1

[1] = GST-tagged DPF2 (PPC2W2 = Dual PHD + C2W2-type Zn-finger)
[2] = GST-tagged BPTF (PB = PHD + Bromodomain)
[3] = GST-tagged CHD5 (PPCC = Dual PHD + Dual Chromodomain)
[4] = GST-tagged CHD5 (PCC = PHD + Dual Chromodomain)
[5] = GST-tagged TRIM66 (PB = PHD + Bromodomain)
[6] = GST-tagged MORC3 (CW = CW-type Zn-finger)
[7] = GST-tagged KDM4C (TTP = Tandem Tudor domain + PHD)
[8] = GST-tagged CHD4 (PPCC = Dual PHD + Dual Chromodomain)
[9] = GST-tagged reader, PB = PHD + Bromodomain
[10] = GST-tagged reader, PPCC = Dual PHD + Dual Chromodomain

Substance: H4 (11-27): H4 11-27
- Array Heatmap signal, ING4 (ING4; GST-tagged ING4): 0.4682
- Array Heatmap signal, ING2 (ING2; GST-tagged ING2): 0.6025
- Array Heatmap signal, DPF2 (PPC2W2) (DPF2 (PPC2W2); [1]): 0.705
- Array Heatmap signal, BPTF (PB) (BPTF (PB); [2]): 0.3518
- Array Heatmap signal, PHF23 (PHF23; GST-tagged PHF23): 0.5647
- Array Heatmap signal, KDM7A (KDM7A; GST-tagged KDM7A): 0.3743
- Array Heatmap signal, ING1 (ING1; GST-tagged ING1): 0.5543
- Array Heatmap signal, CHD5 (PPCC) (CHD5 (PPCC); [3]): 0.5646
- Array Heatmap signal, PHF8 (PHF8; GST-tagged PHF8): 0.3468
- Array Heatmap signal, PHF2 (PHF2; GST-tagged PHF2): 0.5451
- Array Heatmap signal, CHD5 (PCC) (CHD5 (PCC); [4]): 0.8335
- Array Heatmap signal, PHRF1 (RP) (PHRF1 (RP); GST-tagged PHRF1 (RP)): 0.4565
- Array Heatmap signal, PHF13 (PHF13; GST-tagged PHF13): 0.6301
- Array Heatmap signal, KDM5A (3) (KDM5A (3); GST-tagged KDM5A (3)): 0.4231
- Array Heatmap signal, MLL5 (MLL5; GST-tagged MLL5): 0.5751
- Array Heatmap signal, TAF3 (TAF3; GST-tagged TAF3): 0.2827
- Array Heatmap signal, BAZ2B (BAZ2B; GST-tagged BAZ2B): 0.4866
- Array Heatmap signal, SP140L (SP140L; GST-tagged SP140L): 0.3427
- Array Heatmap signal, TRIM66 (PB) (TRIM66 (PB); [5]): 0.6367
- Array Heatmap signal, RAG2 (RAG2; GST-tagged RAG2): 0.2544
- Array Heatmap signal, KDM5B (1) (KDM5B (1); GST-tagged KDM5B (1)): 0.652
- Array Heatmap signal, MORC3 (CW) (MORC3 (CW); [6]): 0.3632
- Array Heatmap signal, KDM5B (3) (KDM5B (3); GST-tagged KDM5B (3)): 0.4786
- Array Heatmap signal, DIDO1 (DIDO1; GST-tagged DIDO1): 0.7393
- Array Heatmap signal, ING3 (ING3; GST-tagged ING3): 0.5001
- Array Heatmap signal, ING5 (ING5; GST-tagged ING5): 0.3644
- Array Heatmap signal, AIRE (PP) (AIRE (PP); GST-tagged AIRE (PP)): 0.4611
- Array Heatmap signal, KDM4C (TTP) (KDM4C (TTP); [7]): 0.4895
- Array Heatmap signal, KDM5A (1) (KDM5A (1); GST-tagged KDM5A (1)): 0.4724
- Array Heatmap signal, PHF21A (PHF21A; GST-tagged PHF21A): 0.4899
- Array Heatmap signal, CHD4 (PPCC) (CHD4 (PPCC); [8]): 0.6032

Substance: H4K5K8but (1-23): H4 1-23
- Array Heatmap signal, ING4 (ING4; GST-tagged reader): 0.4968
- Array Heatmap signal, ING2 (ING2; GST-tagged reader): 0.5955
- Array Heatmap signal, DPF2 (PPC2W2) (DPF2 (PPC2W2); GST-tagged reader, PPC2W2 = Dual PHD + C2W2-type Zn-finger): 0.658
- Array Heatmap signal, BPTF (PB) (BPTF (PB); [9]): 0.3688
- Array Heatmap signal, PHF23 (PHF23; GST-tagged reader): 0.5226
- Array Heatmap signal, KDM7A (KDM7A; GST-tagged reader): 0.4497
- Array Heatmap signal, ING1 (ING1; GST-tagged reader): 0.5231
- Array Heatmap signal, CHD5 (PPCC) (CHD5 (PPCC); [10]): 0.592
- Array Heatmap signal, PHF8 (PHF8; GST-tagged reader): 0.4044
- Array Heatmap signal, PHF2 (PHF2; GST-tagged reader): 0.4396
- Array Heatmap signal, CHD5 (PCC) (CHD5 (PCC); GST-tagged reader, PCC = PHD + Dual Chromodomain): 0.8285
- Array Heatmap signal, PHRF1 (RP) (PHRF1 (RP); GST-tagged reader): 0.4216
- Array Heatmap signal, PHF13 (PHF13; GST-tagged reader): 0.6376
- Array Heatmap signal, KDM5A (3) (KDM5A (3); GST-tagged reader): 0.457
- Array Heatmap signal, MLL5 (MLL5; GST-tagged reader): 0.5399
- Array Heatmap signal, TAF3 (TAF3; GST-tagged reader): 0.2895
- Array Heatmap signal, BAZ2B (BAZ2B; GST-tagged reader): 0.52
- Array Heatmap signal, SP140L (SP140L; GST-tagged reader): 0.399
- Array Heatmap signal, TRIM66 (PB) (TRIM66 (PB); [9]): 0.5587
- Array Heatmap signal, RAG2 (RAG2; GST-tagged reader): 0.2516
- Array Heatmap signal, KDM5B (1) (KDM5B (1); GST-tagged reader): 0.7062
- Array Heatmap signal, MORC3 (CW) (MORC3 (CW); GST-tagged reader, CW = CW-type Zn-finger): 0.3933
- Array Heatmap signal, KDM5B (3) (KDM5B (3); GST-tagged reader): 0.5218
- Array Heatmap signal, DIDO1 (DIDO1; GST-tagged reader): 0.6112
- Array Heatmap signal, ING3 (ING3; GST-tagged reader): 0.4809
- Array Heatmap signal, ING5 (ING5; GST-tagged reader): 0.3968
- Array Heatmap signal, AIRE (PP) (AIRE (PP); GST-tagged reader): 0.5575
- Array Heatmap signal, KDM4C (TTP) (KDM4C (TTP); GST-tagged reader, TTP = Tandem Tudor domain + PHD): 0.558
- Array Heatmap signal, KDM5A (1) (KDM5A (1); GST-tagged reader): 0.515
- Array Heatmap signal, PHF21A (PHF21A; GST-tagged reader): 0.5071
- Array Heatmap signal, CHD4 (PPCC) (CHD4 (PPCC); [10]): 0.6049

Substance: H4K5ac + K8ac + K12ac + K16ac: H4 1-23
- Array Heatmap signal, ING4 (ING4; GST-tagged ING4): 0.4555
- Array Heatmap signal, ING2 (ING2; GST-tagged ING2): 0.572
- Array Heatmap signal, DPF2 (PPC2W2) (DPF2 (PPC2W2); [1]): 0.6508
- Array Heatmap signal, BPTF (PB) (BPTF (PB); [2]): 0.4178
- Array Heatmap signal, PHF23 (PHF23; GST-tagged PHF23): 0.4802
- Array Heatmap signal, KDM7A (KDM7A; GST-tagged KDM7A): 0.4726
- Array Heatmap signal, ING1 (ING1; GST-tagged ING1): 0.4878
- Array Heatmap signal, CHD5 (PPCC) (CHD5 (PPCC); [3]): 0.5534
- Array Heatmap signal, PHF8 (PHF8; GST-tagged PHF8): 0.3604
- Array Heatmap signal, PHF2 (PHF2; GST-tagged PHF2): 0.443
- Array Heatmap signal, CHD5 (PCC) (CHD5 (PCC); [4]): 0.8346
- Array Heatmap signal, PHRF1 (RP) (PHRF1 (RP); GST-tagged PHRF1 (RP)): 0.436
- Array Heatmap signal, PHF13 (PHF13; GST-tagged PHF13): 0.598
- Array Heatmap signal, KDM5A (3) (KDM5A (3); GST-tagged KDM5A (3)): 0.4106
- Array Heatmap signal, MLL5 (MLL5; GST-tagged MLL5): 0.5322
- Array Heatmap signal, TAF3 (TAF3; GST-tagged TAF3): 0.2729
- Array Heatmap signal, BAZ2B (BAZ2B; GST-tagged BAZ2B): 0.5369
- Array Heatmap signal, SP140L (SP140L; GST-tagged SP140L): 0.3494
- Array Heatmap signal, TRIM66 (PB) (TRIM66 (PB); [5]): 0.6818
- Array Heatmap signal, RAG2 (RAG2; GST-tagged RAG2): 0.2398
- Array Heatmap signal, KDM5B (1) (KDM5B (1); GST-tagged KDM5B (1)): 0.7197
- Array Heatmap signal, MORC3 (CW) (MORC3 (CW); [6]): 0.3746
- Array Heatmap signal, KDM5B (3) (KDM5B (3); GST-tagged KDM5B (3)): 0.5025
- Array Heatmap signal, DIDO1 (DIDO1; GST-tagged DIDO1): 0.6106
- Array Heatmap signal, ING3 (ING3; GST-tagged ING3): 0.4391
- Array Heatmap signal, ING5 (ING5; GST-tagged ING5): 0.371
- Array Heatmap signal, AIRE (PP) (AIRE (PP); GST-tagged AIRE (PP)): 0.5646
- Array Heatmap signal, KDM4C (TTP) (KDM4C (TTP); [7]): 0.5368
- Array Heatmap signal, KDM5A (1) (KDM5A (1); GST-tagged KDM5A (1)): 0.4894
- Array Heatmap signal, PHF21A (PHF21A; GST-tagged PHF21A): 0.4657
- Array Heatmap signal, CHD4 (PPCC) (CHD4 (PPCC); [8]): 0.5585
